Columns and labels:
Assay in all cases: cell-based
rα6/α3β4 nAChR = rα6/α3β4 nAChR (Rattus norvegicus, UniProt P04757+P12392+P43143)
rα4β2 nAChR = rα4β2 nAChR (Rattus norvegicus, UniProt P09483+P12390)
rα2β2 nAChR = rα2β2 nAChR (Rattus norvegicus, UniProt P12389+P12390)
rα3β4 nAChR = rα3β4 nAChR (Rattus norvegicus, UniProt P04757+P12392); format: cell-based
rα2β4 nAChR = rα2β4 nAChR (Rattus norvegicus, UniProt P12389+P12392)
rα7 nAChR = rα7 nAChR (Rattus norvegicus, UniProt Q05941)
rα6/α3β2β3 nAChR = rα6/α3β2β3 nAChR (Rattus norvegicus, UniProt P04757+P12390+P12391+P43143)
Sequence of rα6/α3β2β3 nAChR (P04757 whole entry, looked up): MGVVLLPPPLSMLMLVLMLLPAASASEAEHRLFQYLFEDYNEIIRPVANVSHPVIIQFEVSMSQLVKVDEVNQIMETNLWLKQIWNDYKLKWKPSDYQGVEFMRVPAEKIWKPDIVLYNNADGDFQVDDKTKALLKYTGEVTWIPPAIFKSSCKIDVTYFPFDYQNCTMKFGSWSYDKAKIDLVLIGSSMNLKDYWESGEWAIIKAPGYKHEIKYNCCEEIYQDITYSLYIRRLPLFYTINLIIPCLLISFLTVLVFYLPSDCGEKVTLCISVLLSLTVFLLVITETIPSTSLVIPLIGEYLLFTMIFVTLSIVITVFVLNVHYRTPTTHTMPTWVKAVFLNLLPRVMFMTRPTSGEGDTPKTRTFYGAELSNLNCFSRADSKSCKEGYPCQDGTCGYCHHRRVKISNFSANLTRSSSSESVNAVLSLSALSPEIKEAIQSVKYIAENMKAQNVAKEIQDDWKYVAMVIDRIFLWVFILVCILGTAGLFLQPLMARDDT
Sequence of rα6/α3β2β3 nAChR (P12390 whole entry, looked up): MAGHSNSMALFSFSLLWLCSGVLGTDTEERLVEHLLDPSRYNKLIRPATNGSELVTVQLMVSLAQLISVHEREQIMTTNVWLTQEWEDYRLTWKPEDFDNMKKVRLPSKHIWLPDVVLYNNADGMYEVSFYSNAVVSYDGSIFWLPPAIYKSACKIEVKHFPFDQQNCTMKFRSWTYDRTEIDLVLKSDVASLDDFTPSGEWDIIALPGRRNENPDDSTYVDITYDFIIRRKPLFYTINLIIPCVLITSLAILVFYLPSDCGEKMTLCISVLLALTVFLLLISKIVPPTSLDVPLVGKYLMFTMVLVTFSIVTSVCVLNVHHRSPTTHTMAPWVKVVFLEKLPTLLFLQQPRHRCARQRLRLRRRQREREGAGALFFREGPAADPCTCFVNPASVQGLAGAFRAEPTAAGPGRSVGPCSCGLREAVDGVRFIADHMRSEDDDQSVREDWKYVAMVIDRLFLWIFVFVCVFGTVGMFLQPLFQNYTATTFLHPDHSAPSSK
Sequence of rα6/α3β2β3 nAChR (P12391 whole entry, looked up): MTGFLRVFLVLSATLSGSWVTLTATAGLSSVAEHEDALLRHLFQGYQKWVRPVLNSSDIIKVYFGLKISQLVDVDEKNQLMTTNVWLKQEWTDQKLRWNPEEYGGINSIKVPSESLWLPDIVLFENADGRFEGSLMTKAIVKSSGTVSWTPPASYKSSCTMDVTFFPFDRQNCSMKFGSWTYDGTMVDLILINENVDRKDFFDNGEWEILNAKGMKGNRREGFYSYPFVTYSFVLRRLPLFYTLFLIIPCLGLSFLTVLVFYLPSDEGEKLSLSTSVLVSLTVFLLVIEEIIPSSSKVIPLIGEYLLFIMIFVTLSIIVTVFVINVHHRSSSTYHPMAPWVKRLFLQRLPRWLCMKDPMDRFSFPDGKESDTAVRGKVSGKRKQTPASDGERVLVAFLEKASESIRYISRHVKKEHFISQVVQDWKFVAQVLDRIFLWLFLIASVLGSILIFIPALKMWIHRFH
Sequence of rα6/α3β2β3 nAChR (P43143 whole entry, looked up): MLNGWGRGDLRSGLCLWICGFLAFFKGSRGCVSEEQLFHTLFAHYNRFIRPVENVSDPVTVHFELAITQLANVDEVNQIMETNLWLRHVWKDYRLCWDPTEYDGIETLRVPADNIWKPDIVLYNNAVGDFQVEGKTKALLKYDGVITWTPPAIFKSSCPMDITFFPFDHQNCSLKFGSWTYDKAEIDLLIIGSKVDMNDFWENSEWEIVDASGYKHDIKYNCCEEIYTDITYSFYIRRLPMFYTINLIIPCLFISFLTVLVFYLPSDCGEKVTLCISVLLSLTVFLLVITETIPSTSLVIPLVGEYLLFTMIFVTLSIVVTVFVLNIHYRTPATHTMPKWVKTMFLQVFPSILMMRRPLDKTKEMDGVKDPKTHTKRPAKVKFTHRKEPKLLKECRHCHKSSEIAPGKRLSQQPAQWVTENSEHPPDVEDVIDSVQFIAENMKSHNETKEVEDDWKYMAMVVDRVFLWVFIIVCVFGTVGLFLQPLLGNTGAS

rα4β4 nAChR = rα4β4 nAChR (Rattus norvegicus, UniProt P09483+P12392)
rα9α10 nAChR = rα9α10 nAChR (Rattus norvegicus, UniProt P43144+Q9JLB5)
rα3β2 nAChR = rα3β2 nAChR (Rattus norvegicus, UniProt P04757+P12390)
Sequence of rα3β2 nAChR (P04757 26-499 limits assumed): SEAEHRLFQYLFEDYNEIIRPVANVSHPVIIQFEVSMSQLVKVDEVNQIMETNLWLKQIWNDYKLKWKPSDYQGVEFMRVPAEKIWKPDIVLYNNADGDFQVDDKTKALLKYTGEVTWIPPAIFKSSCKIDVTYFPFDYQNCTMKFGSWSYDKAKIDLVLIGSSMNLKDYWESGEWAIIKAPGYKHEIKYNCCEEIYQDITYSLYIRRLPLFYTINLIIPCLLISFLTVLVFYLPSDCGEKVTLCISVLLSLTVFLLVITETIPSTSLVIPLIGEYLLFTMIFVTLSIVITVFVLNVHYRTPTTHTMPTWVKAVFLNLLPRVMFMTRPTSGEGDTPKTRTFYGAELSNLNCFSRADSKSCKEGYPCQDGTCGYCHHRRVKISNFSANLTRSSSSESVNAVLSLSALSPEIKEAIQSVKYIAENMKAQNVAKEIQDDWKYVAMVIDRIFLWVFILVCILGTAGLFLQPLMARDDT
Sequence of rα3β2 nAChR (P12390 25-500 limits assumed): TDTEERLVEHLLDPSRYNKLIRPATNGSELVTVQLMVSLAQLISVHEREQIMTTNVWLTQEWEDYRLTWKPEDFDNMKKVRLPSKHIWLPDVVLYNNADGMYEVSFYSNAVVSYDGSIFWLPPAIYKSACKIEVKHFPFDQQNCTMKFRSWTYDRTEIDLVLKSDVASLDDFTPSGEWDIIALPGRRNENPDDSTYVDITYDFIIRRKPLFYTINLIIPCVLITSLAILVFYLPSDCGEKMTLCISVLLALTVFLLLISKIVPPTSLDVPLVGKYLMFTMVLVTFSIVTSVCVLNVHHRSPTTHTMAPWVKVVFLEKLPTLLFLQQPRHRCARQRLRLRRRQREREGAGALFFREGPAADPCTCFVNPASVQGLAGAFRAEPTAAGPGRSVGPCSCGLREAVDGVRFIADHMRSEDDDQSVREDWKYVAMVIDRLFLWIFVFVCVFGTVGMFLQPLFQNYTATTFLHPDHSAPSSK

Sequence of rα7 nAChR (Q05941 23-502 limits assumed): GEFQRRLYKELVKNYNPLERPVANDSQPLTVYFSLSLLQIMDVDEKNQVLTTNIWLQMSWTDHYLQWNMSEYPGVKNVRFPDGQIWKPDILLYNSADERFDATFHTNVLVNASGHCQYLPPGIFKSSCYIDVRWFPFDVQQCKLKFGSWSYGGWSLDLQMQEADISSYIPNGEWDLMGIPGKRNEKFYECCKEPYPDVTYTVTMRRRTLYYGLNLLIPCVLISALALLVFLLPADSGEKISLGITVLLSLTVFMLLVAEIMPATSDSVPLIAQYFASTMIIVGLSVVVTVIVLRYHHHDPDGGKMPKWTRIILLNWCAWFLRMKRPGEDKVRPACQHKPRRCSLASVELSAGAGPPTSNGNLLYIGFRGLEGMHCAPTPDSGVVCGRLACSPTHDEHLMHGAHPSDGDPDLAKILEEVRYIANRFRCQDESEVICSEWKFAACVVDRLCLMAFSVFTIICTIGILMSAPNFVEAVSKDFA
Sequence of rα2β4 nAChR (P12389 28-511 limits assumed): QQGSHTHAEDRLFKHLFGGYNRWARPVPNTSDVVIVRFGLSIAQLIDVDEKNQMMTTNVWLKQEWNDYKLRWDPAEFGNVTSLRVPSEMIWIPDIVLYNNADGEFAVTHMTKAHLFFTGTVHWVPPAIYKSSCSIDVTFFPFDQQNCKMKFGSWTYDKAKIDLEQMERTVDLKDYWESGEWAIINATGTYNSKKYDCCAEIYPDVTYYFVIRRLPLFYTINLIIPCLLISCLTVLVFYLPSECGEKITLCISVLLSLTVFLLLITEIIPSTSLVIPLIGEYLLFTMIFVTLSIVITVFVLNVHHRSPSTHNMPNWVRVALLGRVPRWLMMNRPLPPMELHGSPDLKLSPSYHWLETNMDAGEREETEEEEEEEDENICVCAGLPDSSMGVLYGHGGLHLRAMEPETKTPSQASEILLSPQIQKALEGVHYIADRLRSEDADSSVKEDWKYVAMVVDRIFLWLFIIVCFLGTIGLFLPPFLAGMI
Sequence of rα2β4 nAChR (P12392 21-495 limits assumed): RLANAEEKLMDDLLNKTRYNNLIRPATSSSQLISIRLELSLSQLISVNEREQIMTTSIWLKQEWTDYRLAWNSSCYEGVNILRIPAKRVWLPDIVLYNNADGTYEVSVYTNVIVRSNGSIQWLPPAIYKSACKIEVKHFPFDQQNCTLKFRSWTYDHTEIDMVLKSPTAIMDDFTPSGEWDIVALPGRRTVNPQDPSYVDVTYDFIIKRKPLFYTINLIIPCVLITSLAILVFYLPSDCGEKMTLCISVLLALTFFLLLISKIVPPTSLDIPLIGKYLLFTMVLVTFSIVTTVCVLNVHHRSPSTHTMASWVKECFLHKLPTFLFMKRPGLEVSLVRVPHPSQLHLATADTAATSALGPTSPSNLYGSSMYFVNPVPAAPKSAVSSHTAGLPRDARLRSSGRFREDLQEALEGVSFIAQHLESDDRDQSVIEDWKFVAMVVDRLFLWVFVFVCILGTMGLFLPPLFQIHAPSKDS
Sequence of rα2β2 nAChR (P12389 28-511 limits assumed): as the sequence (P12389 28-511 limits assumed) above
Sequence of rα2β2 nAChR (P12390 25-500 limits assumed): as the sequence (P12390 25-500 limits assumed) above
Sequence of rα3β4 nAChR (P04757 26-499 limits assumed): as the sequence (P04757 26-499 limits assumed) above
Sequence of rα3β4 nAChR (P12392 21-495 limits assumed): as the sequence (P12392 21-495 limits assumed) above

CC[C@H](C)[C@@H]1NC(=O)[C@H](CC(=O)O)NC(=O)[C@H](CCC(N)=O)NC(=O)[C@H](CC(N)=O)NC(=O)[C@H](CC(N)=O)NC(=O)CNC(=O)[C@H](C)NC(=O)[C@@H]2CSSC[C@H](NC(=O)CN)C(=O)N[C@@H](CSSC[C@@H](C(N)=O)NC1=O)C(=O)N[C@@H](CO)C(=O)N[C@@H](Cc1c[nH]cn1)C(=O)N1CCC[C@H]1C(=O)N[C@@H](C)C(=O)N2 [LvIF]
IC50 (rα6/α3β4 nAChR): > 10 µM | inhibition at 10 µM (rα6/α3β4 nAChR; read-out: inhibition at 10 μM): 2.3 ± 3.3% | IC50 (rα4β2 nAChR): > 10 µM | inhibition at 10 µM (rα4β2 nAChR; read-out: inhibition at 10 μM): 4.6 ± 2.5% | IC50 (rα2β2 nAChR): > 10 µM | inhibition at 10 µM (rα2β2 nAChR; read-out: inhibition at 10 μM): 6.7 ± 4.5% | IC50 (rα3β4 nAChR): > 10 µM | inhibition at 1 μM (rα3β4 nAChR): no inhibition | IC50 (rα2β4 nAChR): > 10 µM | inhibition at 10 µM (rα2β4 nAChR; read-out: inhibition at 10 μM): 9.5 ± 2.4% | IC50 (rα7 nAChR): > 10 µM | inhibition at 10 µM (rα7 nAChR; read-out: inhibition at 10 μM): 12.3 ± 4.2% | IC50 (rα6/α3β2β3 nAChR): 0.0144 µM | inhibition at 0.01 µM (rα6/α3β2β3 nAChR; read-out: inhibition at 10 nM): ~39% | inhibition at 10 µM (rα6/α3β2β3 nAChR; read-out: inhibition at 10 μM): 98.3 ± 0.3% | IC50 (rα4β4 nAChR): > 10 µM | inhibition at 10 µM (rα4β4 nAChR; read-out: inhibition at 10 μM): 8.6 ± 4.2% | IC50 (rα9α10 nAChR): > 10 µM | inhibition at 10 µM (rα9α10 nAChR; read-out: inhibition at 10 μM): 1.31 ± 5.2% | IC50 (rα3β2 nAChR): 0.00898 µM | inhibition at 0.01 µM (rα3β2 nAChR; read-out: inhibition at 10 nM): ~57% | inhibition at 10 µM (rα3β2 nAChR; read-out: inhibition at 10 μM): 98.3 ± 0.6%
